According to ChEMBL document CHEMBL5625227, “Discovery and optimization of 2,3-diaryl-1,3-thiazolidin-4-one-based derivatives as potent and selective cytotoxic agents with anti-inflammatory activity” (Eur J Med Chem, 2023):
Active and inactive are the calls of the source. The calls are words filed in the database; no cut-off is given here.

Experiments:
[1] = biological target: T1, Prostaglandin G/H synthase 1 (Ovis aries, UniProt P05979); experiment: Inhibition of ovine COX-1
T1 sequence (P05979 whole entry): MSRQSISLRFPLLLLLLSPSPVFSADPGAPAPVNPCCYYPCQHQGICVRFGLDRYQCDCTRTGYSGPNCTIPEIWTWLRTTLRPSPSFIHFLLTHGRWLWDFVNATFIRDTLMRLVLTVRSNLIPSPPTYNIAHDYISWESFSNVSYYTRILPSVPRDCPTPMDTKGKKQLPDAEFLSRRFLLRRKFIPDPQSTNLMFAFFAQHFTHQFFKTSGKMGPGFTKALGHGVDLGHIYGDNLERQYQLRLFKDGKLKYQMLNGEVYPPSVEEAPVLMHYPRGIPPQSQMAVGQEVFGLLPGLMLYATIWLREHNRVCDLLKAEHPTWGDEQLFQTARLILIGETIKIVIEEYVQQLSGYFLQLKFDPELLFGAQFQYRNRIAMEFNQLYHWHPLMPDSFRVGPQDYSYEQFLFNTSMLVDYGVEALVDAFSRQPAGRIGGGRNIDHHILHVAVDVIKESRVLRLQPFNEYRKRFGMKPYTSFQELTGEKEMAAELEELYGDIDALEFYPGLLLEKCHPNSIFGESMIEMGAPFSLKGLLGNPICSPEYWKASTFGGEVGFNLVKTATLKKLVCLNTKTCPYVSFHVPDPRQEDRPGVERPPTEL

[2] = Acute ulcerogenic activity in Sprague-Dawley male rat assessed as change in hyperactive glands at 50 mg/kg/day, po administered for 3 days by hematoxylin and eosin staining method; assay type: toxicity, organism-based, Stomach; details: in vivo, 72 h, time 3 day
Ehrlich [3] = experiment: Antitumor activity against mouse Ehrlich solid carcinoma cells bearing adult male swiss albino mouse assessed as tumor growth inhibition at 50 mg/kg, po administered every other day and observed at 13 days relative to control; assay type: functional; details: 312 h, time 13 day, read-out: TGI
HT-29 [4] = experiment: Anticlonogenic activity against human HT-29 cells assessed as reduction in number of colonies at 0.500 uM incubated for 24 hrs by clonogenic survival assay; assay type: functional, cell-based; details: dose 0.5 µM
[5] = Acute ulcerogenic activity in Sprague-Dawley male rat assessed as congestion in edema at 50 mg/kg/day, po administered for 3 days by hematoxylin and eosin staining method; assay type: toxicity, organism-based; details: in vivo, 72 h, time 3 day
HT-29 [6] = experiment: Anti-migration activity in human HT-29 cells assessed as suppression in cell migration at 0.500 uM incubated 48 hrs by wound-healing assay; assay type: functional, cell-based; details: dose 0.5 µM
[7] = Acute ulcerogenic activity in Sprague-Dawley male rat assessed as change in normal non keratinized gastric mucosa at 50 mg/kg/day, po administered for 3 days by hematoxylin and eosin staining method; assay type: toxicity, organism-based, Stomach; details: in vivo, 72 h, time 3 day
Rattus norvegicus [8] = experiment: Antiinflammatory activity against carrageenan-induced paw edema Sprague-Dawley rat model assessed as inhibition of inflammation at 50 mg/kg, po after 5 hrs relative to control; assay type: functional; design: scale not given: the % may be the effect or the level left
[9] = Acute ulcerogenic activity in Sprague-Dawley male rat assessed as ulcer index at 50 mg/kg/day, po administered for 3 days; assay type: toxicity, organism-based; details: in vivo, 72 h, time 3 day
[10] = Acute ulcerogenic activity in Sprague-Dawley male rat assessed as average severity of ulcers at 50 mg/kg/day, po administered for 3 days; assay type: toxicity, organism-based; details: in vivo, 72 h, time 3 day
HT-29 [11] = experiment: Induction of cell cycle arrest in human HT-29 cells assessed as increase the number of cells at G2/M phase at 0.500 uM incubated for 24 hrs by propidium iodide staining based flow cytometry analysis relative to control; assay type: functional; details: dose 0.5 µM
Ehrlich [12] = experiment: Antitumor activity against mouse Ehrlich solid carcinoma cells bearing adult male swiss albino mouse assessed as decrease in tumor volume at 50 mg/kg, po administered every other day and observed at 9 days; assay type: functional, organism-based; details: time 9.0 day
Rattus norvegicus [13] = experiment: Antiinflammatory activity against carrageenan-induced paw edema Sprague-Dawley rat model assessed as inhibition of inflammation at 50 mg/kg, po after 1 hr relative to control; assay type: functional; design: scale not given: the % may be the effect or the level left
[14] = Acute ulcerogenic activity in Sprague-Dawley male rat assessed as average number of ulcers at 50 mg/kg/day, po administered for 3 days; assay type: toxicity, organism-based; details: in vivo, 72 h, time 3 day
A2780 = experiment: Cytotoxicity against human A2780 cells assessed as inhibition in cell growth incubated for 72 hrs by MTT assay; assay type: functional, cell-based; details: A2780, 72 h
HT-29 [15] = experiment: Induction of apoptosis in human HT-29 cells assessed as accumulation of cells at viable stage at 0.5 uM incubated for 24 hrs by Annexin V-FITC/propidium iodide staining based flow cytometry analysis (reference value: 91.7%); assay type: functional
[16] = Cytotoxicity against human MRC5 cells assessed as inhibition in cell growth incubated for 72 hrs by MTT assay; assay type: toxicity, cell-based
[17] = Acute ulcerogenic activity in Sprague-Dawley male rat assessed as congestion in submucosa at 50 mg/kg/day, po administered for 3 days by hematoxylin and eosin staining method; assay type: toxicity, organism-based, Stomach; details: in vivo, 72 h, time 3 day
Ehrlich [18] = experiment: Antitumor activity against mouse Ehrlich solid carcinoma cells bearing adult male swiss albino mouse assessed as decrease in tumor volume at 50 mg/kg, po administered every other day and observed at 13 days; assay type: functional, organism-based; details: time 13.0 day
Ehrlich [19] = experiment: Antitumor activity against mouse Ehrlich solid carcinoma cells bearing adult male swiss albino mouse assessed as decrease in tumor volume at 50 mg/kg, po administered every other day and observed at 5 days; assay type: functional, organism-based; details: time 5.0 day
[20] = Selectivity index, ratio of IC50 for cytotoxicity against human MRC5 cells to IC50 for cytotoxicity against human MCF7 cells; details: MRC5 cells versus MCF7 cells
Rattus norvegicus [21] = experiment: Antiinflammatory activity against carrageenan-induced paw edema Sprague-Dawley rat model assessed as inhibition of paw edema by measuring edema thickness at 50 mg/kg, po measured after 3 hrs (reference value: 1.41 +/- 0.13 mm); assay type: functional
Sus scrofa = species: Sus scrofa; experiment: Inhibition of porcine brain tubulin polymerization at 1 uM by fluorescence-based tubulin polymerization assay
HT-29 [22] = experiment: Induction of apoptosis in human HT-29 cells assessed as accumulation of cells at necrotic stage at 0.5 uM incubated for 24 hrs by Annexin V-FITC/propidium iodide staining based flow cytometry analysis (reference value: 8.1%); assay type: functional
MCF7 = experiment: Cytotoxicity against human MCF7 cells assessed as inhibition in cell growth incubated for 72 hrs by MTT assay; assay type: functional, cell-based; details: MCF7, 72 h
HT-29 [23] = experiment: Induction of apoptosis in human HT-29 cells assessed as accumulation of cells at early apoptotic stage at 0.5 uM incubated for 24 hrs by Annexin V-FITC/propidium iodide staining based flow cytometry analysis (reference value: 0.1%); assay type: functional
[24] = Acute ulcerogenic activity in Sprague-Dawley male rat assessed as incidence of ulcer/10 animal at 50 mg/kg/day, po administered for 3 days; assay type: toxicity, organism-based; details: in vivo, 72 h, time 3 day
HT-29 [25] = experiment: Induction of cell cycle arrest in human HT-29 cells assessed as increase the number of cells at S phase at 0.500 uM incubated for 24 hrs by propidium iodide staining based flow cytometry analysis relative to control; assay type: functional; details: dose 0.5 µM
HT-29 [26] = experiment: Induction of apoptosis in human HT-29 cells assessed as accumulation of cells at late apoptotic stage at 0.5 uM incubated for 24 hrs by Annexin V-FITC/propidium iodide staining based flow cytometry analysis (reference value: 0.2%); assay type: functional
[27] = Acute ulcerogenic activity in Sprague-Dawley male rat assessed as change in normal keratinized gastric mucosa at 50 mg/kg/day, po administered for 3 days by hematoxylin and eosin staining method; assay type: toxicity, organism-based, Stomach; details: in vivo, 72 h, time 3 day
Ehrlich [28] = experiment: Antitumor activity against mouse Ehrlich solid carcinoma cells bearing adult male swiss albino mouse assessed as decrease in tumor weight at 50 mg/kg, po administered every other day and observed at 14 days; assay type: functional, organism-based; details: time 14.0 day
[29] = Selectivity index, ratio of IC50 for cytotoxicity against human MRC5 cells to IC50 for cytotoxicity against human A2780 cells; details: MRC5 cells versus A2780 cells
HT-29 [30] = experiment: Cytotoxicity against human HT-29 cells assessed as inhibition in cell growth incubated for 72 hrs by MTT assay; assay type: functional, cell-based; details: HT-29, 72 h
Rattus norvegicus [31] = experiment: Antiinflammatory activity against carrageenan-induced paw edema Sprague-Dawley rat model assessed as inhibition of paw edema by measuring edema thickness at 50 mg/kg, po measured after 1 hr (reference value: 0.71 +/- 0.03 mm); assay type: functional
Rattus norvegicus [32] = experiment: Antiinflammatory activity against carrageenan-induced paw edema Sprague-Dawley rat model assessed as inhibition of inflammation at 50 mg/kg, po after 3 hrs relative to control; assay type: functional; design: scale not given: the % may be the effect or the level left
Rattus norvegicus [33] = experiment: Antiinflammatory activity against carrageenan-induced paw edema Sprague-Dawley rat model assessed as inhibition of paw edema by measuring edema thickness at 50 mg/kg, po measured after 5 hrs (reference value: 1.39 +/- 0.11 mm); assay type: functional
[34] = Selectivity index, ratio of IC50 for cytotoxicity against human MRC5 cells to IC50 for cytotoxicity against human HT-29 cells; details: MRC5 cells versus HT-29 cells

- IC50 [1]: 2.11 µM
- inhibition (Sus scrofa): inactive
SMILES: Cc1ccc(C2SCC(=O)N2c2ccc(OCC(=O)Nc3ccc(F)cc3)cc2)cc1 (configuration not stated)
- Activity [2]: Non-Toxic
- inhibition in vivo at 50 mg/kg (Ehrlich [3]): 57.2%
- Activity (HT-29 [4]): Active
- Activity [5]: Toxic
- Activity (HT-29 [6]): Active
- Activity [7]: Non-Toxic
- Activity (Rattus norvegicus [8]): 58.99%
- UI [9]: 14.27
- Activity [10]: 2.6
- Activity (HT-29 [11]): 15.6%
- Activity (Ehrlich [12]): Active
- Activity (Rattus norvegicus [13]): 15.3%
- Activity [14]: 1.67
- IC50 (A2780): 10.5 µM
- Activity (HT-29 [15]): 76.2%
- IC50 at 72 h [16]: 2.46 µM
- Activity [17]: Toxic
- Activity (Ehrlich [18]): Active
- Activity (Ehrlich [19]): Active
- selectivity ratio at 72 h [20]: 3.04
- Activity (Rattus norvegicus [21]): 0.55 mm
- Activity (HT-29 [22]): 7.7%
- IC50 (MCF7): 0.81 µM
- Activity (HT-29 [23]): 10%
- Activity [24]: 10%
- Activity (HT-29 [25]): 6.8%
- Activity (HT-29 [26]): 6.1%
- Activity [27]: Non-Toxic
- Activity (Ehrlich [28]): Active
- selectivity ratio at 72 h [29]: 0.23
- IC50 (HT-29 [30]): 0.46 µM
- Activity (Rattus norvegicus [31]): 0.59 mm
- Activity (Rattus norvegicus [32]): 32.7%
- Activity (Rattus norvegicus [33]): 0.57 mm
- selectivity ratio at 72 h [34]: 5.35
